The target in one test is T1, h-TGR5 (Homo sapiens, UniProt Q8TDU6).
T1 sequence (Q8TDU6 1-330): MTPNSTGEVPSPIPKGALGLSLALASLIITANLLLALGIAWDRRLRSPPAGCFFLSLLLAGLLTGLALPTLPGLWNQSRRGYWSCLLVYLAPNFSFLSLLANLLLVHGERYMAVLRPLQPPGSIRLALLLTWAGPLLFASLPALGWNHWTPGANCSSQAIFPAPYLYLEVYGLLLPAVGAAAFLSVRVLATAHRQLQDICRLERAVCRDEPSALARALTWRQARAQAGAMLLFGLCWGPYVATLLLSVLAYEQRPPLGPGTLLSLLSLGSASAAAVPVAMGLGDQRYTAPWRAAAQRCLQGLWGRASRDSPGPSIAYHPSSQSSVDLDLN
As to the kind of experiment: TGR5 cAMP Assay using Cisbio cAMP Dynamic 2 htrf assay kit. It is filed as cell-based. To be noted: hTGR5CRE-luc HEK 293 cells.

The target in the next test is T2, human TGR5 (h-TGR5) (Homo sapiens, UniProt Q8TDU6).
T2 sequence (Q8TDU6 1-330): T1 sequence (Q8TDU6 1-330)
Kind of test: TGR5/CRE-Luciferase Assay. It is filed as cell-based. To be noted: HEK 293 hTGR5/CRE-Luc cells, 6 hours incubation, read-out: CRE-Luc Agonist (EC50). Put shortly:
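HEK 293 CRE-Luciferase cells stably expressing the receptor, plated in DMEM 18-20 h before assay, then exposed to serially diluted compounds (DMEM with 5% DMSO) for 6 h. Luciferase read-out after lysis; EC50 from dose-response.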

As usually defined, the pEC50 is the EC50 on a negative log10 scale, so that one unit is a factor of ten.

pEC50: −log10 of the molar value.

For the compound `COc1cc(C(C)(C)c2cnc(SCc3c(F)cc(S(=O)(=O)N(C)[C@@H](CCCC[N+](C)(C)C)C(=O)O)cc3Cl)n2-c2ccc(F)cc2)ccc1Cl` [Compound 17f, (S)-5-carboxy-5-(3-chloro-4-((5-(2-(4-chloro-3-methoxyphenyl)propan-2-yl)-1-(4-fluorophenyl)-1H-imidazol-2-ylthio)methyl)-5-fluoro-N-methylphenylsulfonamido)-N,N,N-trimethylpentan-1-aminium 2,2,2-trifluoroacetate], the pEC50 on h-TGR5 and at human TGR5 (h-TGR5) was above 7.00 in each case.
As to `COc1cc(C(C)(C)c2cnc(SCc3c(F)cc(S(=O)(=O)N(C)[C@@H](CCCC[N+](C)(C)C)C(=O)O)cc3F)n2-c2ccc(F)cc2)ccc1Cl` [Compound 17g, (S)-5-carboxy-5-(4-((5-(2-(4-chloro-3-methoxyphenyl)propan-2-yl)-1-(4-fluorophenyl)-1H-imidazol-2-ylthio)methyl)-3,5-difluoro-N-methylphenylsulfonamido)-N,N,N-trimethylpentan-1-aminium 2,2,2-trifluoroacetate], the pEC50 at h-TGR5 and on human TGR5 (h-TGR5) was above 7.00 in each case.
As for `CN([C@@H](CCCC[N+](C)(C)C)C(=O)O)S(=O)(=O)c1cc(F)c(CSc2ncc(C(C)(C)c3ccc(Cl)c(Cl)c3)n2-c2ccc(F)cc2)c(Cl)c1` [Compound 17h, (S)-5-carboxy-5-(3-chloro-4-((5-(2-(3,4-dichlorophenyl)propan-2-yl)-1-(4-fluorophenyl)-1H-imidazol-2-ylthio)methyl)-5-fluoro-N-methylphenylsulfonamido)-N,N,N-trimethylpentan-1-aminium 2,2,2-trifluoroacetate], the pEC50 on h-TGR5 and on human TGR5 (h-TGR5) was above 7.00 each time.
Regarding `COc1cc(C(C)(C)c2cnc(SCc3c(F)cc(S(=O)(=O)N[C@H](CCCC[N+](C)(C)C)C(=O)O)cc3Cl)n2-c2ccc(F)cc2)ccc1Cl` [Compound 17i, (R)-5-carboxy-5-(3-chloro-4-((5-(2-(4-chloro-3-methoxyphenyl)propan-2-yl)-1-(4-fluorophenyl)-1H-imidazol-2-ylthio)methyl)-5-fluorophenylsulfonamido)-N,N,N-trimethylpentan-1-aminium 2,2,2-trifluoroacetate], the pEC50 at h-TGR5 and on human TGR5 (h-TGR5) was above 7.00 each time.
Take `COc1cc(C(C)(C)c2cnc(SCc3c(F)cc(S(=O)(=O)N(C)[C@H](CCCC[N+](C)(C)C)C(=O)O)cc3Cl)n2-c2ccc(F)cc2)ccc1Cl` [Compound 17j, (R)-5-carboxy-5-(3-chloro-4-((5-(2-(4-chloro-3-methoxyphenyl)propan-2-yl)-1-(4-fluorophenyl)-1H-imidazol-2-ylthio)methyl)-5-fluoro-N-methylphenylsulfonamido)-N,N,N-trimethylpentan-1-aminium 2,2,2-trifluoroacetate]: the pEC50 at h-TGR5 and on human TGR5 (h-TGR5) was above 7.00 each time.
For `COc1cc(C(C)(C)c2cnc(SCc3c(F)cc(S(=O)(=O)N(C)[C@H](CCCC[N+](C)(C)C)C(=O)O)cc3F)n2-c2ccc(F)cc2)ccc1Cl` [Compound 17k, (R)-5-carboxy-5-(4-((5-(2-(4-chloro-3-methoxyphenyl)propan-2-yl)-1-(4-fluoro-phenyl)-1H-imidazol-2-ylthio)methyl)-3,5-difluoro-N-methylphenylsulfonamido)-N,N,N-trimethylpentan-1-aminium 2,2,2-trifluoroacetate], the pEC50 on h-TGR5 and on human TGR5 (h-TGR5) was above 7.00 throughout.
`COc1cc(C(C)(C)c2cnc(SCc3c(F)cc(S(=O)(=O)N(C)[C@@H](CCCCC[N+](C)(C)C)C(=O)O)cc3Cl)n2-c2ccc(F)cc2)ccc1Cl` [Compound 17l, (S)-6-carboxy-6-(3-chloro-4-((5-(2-(4-chloro-3-methoxyphenyl)propan-2-yl)-1-(4-fluorophenyl)-1H-imidazol-2-ylthio)methyl)-5-fluoro-N-methylphenylsulfonamido)-N,N,N-trimethylhexan-1-aminium 2,2,2-trifluoroacetate]: the pEC50 on h-TGR5 and at human TGR5 (h-TGR5) was above 7.00 throughout.
Take `COc1cc(C(C)(C)c2cnc(CCc3c(F)cc(S(=O)(=O)N(CCC[N+](C)(C)C)[C@H](C)C(=O)O)cc3Cl)n2-c2ccc(F)cc2)ccc1Cl` [Compound 17m, (R)-3-(N-(1-carboxyethyl)-3-chloro-4-(2-(5-(2-(4-chloro-3-methoxyphenyl)propan-2-yl)-1-(4-fluorophenyl)-1H-imidazol-2-yl)ethyl)-5-fluorophenylsulfonamido)-N,N,N-trimethylpropan-1-aminium 2,2,2-trifluoroacetate]: the pEC50 at h-TGR5 and at human TGR5 (h-TGR5) was above 7.00 each time.
As for `COc1cc(C(C)(C)c2cnc(CCc3c(F)cc(S(=O)(=O)N[C@@H](CCCC[N+](C)(C)C)C(=O)O)cc3Cl)n2-c2ccc(F)cc2)ccc1Cl` [Compound 17n, (S)-5-carboxy-5-(3-chloro-4-(2-(5-(2-(4-chloro-3-methoxyphenyl)propan-2-yl)-1-(4-fluorophenyl)-1H-imidazol-2-yl)ethyl)-5-fluorophenylsulfonamido)-N,N,N-trimethylpentan-1-aminium 2,2,2-trifluoroacetate], the pEC50 on h-TGR5 and at human TGR5 (h-TGR5) was above 7.00 in each case.
`COc1cc(C(C)(C)c2cnc(CCc3c(F)cc(S(=O)(=O)N(C)[C@@H](CCCC[N+](C)(C)C)C(=O)O)cc3Cl)n2-c2ccc(F)cc2)ccc1Cl` [Compound 17o, (S)-5-carboxy-5-(3-chloro-4-(2-(5-(2-(4-chloro-3-methoxyphenyl)propan-2-yl)-1-(4-fluorophenyl)-1H-imidazol-2-yl)ethyl)-5-fluoro-N-methylphenylsulfonamido)-N,N,N-trimethylpentan-1-aminium 2,2,2-trifluoroacetate]: the pEC50 at h-TGR5 and at human TGR5 (h-TGR5) was above 7.00 in each case.
Turning to `COc1cc(C(C)(C)c2cnc(SCc3c(F)cc(C#CC[N+](C)(C)C)cc3F)n2-c2ccc(F)cc2)ccc1Cl` [Compound 18, 3-(4-((5-(2-(4-Chloro-3-methoxyphenyl)propan-2-yl)-1-(4-fluorophenyl)-1H-imidazol-2-ylthio)methyl)-3,5-difluorophenyl)-N,N,N-trimethylprop-2-yn-1-aminium 4-methylbenzenesulfonate], the pEC50 at h-TGR5 and on human TGR5 (h-TGR5) was above 7.00 each time.
Turning to `CC[N+](CC)(CC)CC#Cc1cc(F)c(CSc2ncc(C(C)(C)c3ccc(Cl)c(OC)c3)n2-c2ccc(F)cc2)c(F)c1` [Compound 18a, 3-(4-((-5-(2-(4-chloro-3-methoxyphenyl)propan-2-yl)-1-(4-fluorophenyl)-1H-imidazol-2-ylthio)methyl)-3,5-difluorophenyl)-N,N,N-triethylprop-2-yn-1-aminium chloride], the pEC50 at h-TGR5 and on human TGR5 (h-TGR5) was above 7.00 in each case.
As for `COc1cc(C(C)(C)c2cnc(SCc3c(F)cc(CCC[N+]45CCN(CC4)CC5)cc3F)n2-c2ccc(F)cc2)ccc1Cl` [Compound 19, 1-(3-(4-((5-(2-(4-chloro-3-methoxyphenyl)propan-2-yl)-1-(4-fluorophenyl)-1H-imidazol-2-ylthio)methyl)-3,5-difluorophenyl)propyl)-4-aza-1-azoniabicyclo[2.2.2.2]octane 2,2,2-trifluoroacetate], the pEC50 at h-TGR5 and on human TGR5 (h-TGR5) was above 7.00 in each case.
For `COc1cc(C(C)(C)c2cnc(SCc3c(F)cc(CCC[N+](C)(C)C)cc3F)n2-c2ccc(F)cc2)ccc1Cl` [Compound 19a, 3-(4-((5-(2-(4-chloro-3-methoxyphenyl)propan-2-yl)-1-(4-fluorophenyl)-1H-imidazol-2-ylthio)methyl)-3,5-difluorophenyl)-N,N,N-trimethylpropan-1-aminium 2,2,2-trifluoroacetate], the pEC50 at h-TGR5 and at human TGR5 (h-TGR5) was above 7.00 in each case.
Regarding `COc1cc(-n2c(C(C)(C)c3ccc(F)c(Cl)c3)cnc2SCc2c(F)cc(CCC[N+](C)(C)C)cc2F)ccc1F` [Compound 19b, 3-(4-((5-(2-(3-chloro-4-fluorophenyl)propan-2-yl)-1-(4-fluoro-3-methoxyphenyl)-1H-imidazol-2-ylthio)methyl)-3,5-difluorophenyl)-N,N,N-trimethylpropan-1-aminium 2,2,2-trifluoroacetate], the pEC50 at h-TGR5 and at human TGR5 (h-TGR5) was above 7.00 each time.
With `COc1ccc(C(C)(C)c2cnc(SCc3c(F)cc(CCC[N+](C)(C)C)cc3F)n2-c2ccc(F)cc2)cc1Cl` [Compound 19c, 3-(4-((5-(2-(3-chloro-4-methoxyphenyl)propan-2-yl)-1-(4-fluorophenyl)-1H-imidazol-2-ylthio)methyl)-3,5-difluorophenyl)-N,N,N-trimethylpropan-1-aminium 2,2,2-trifluoroacetate], the pEC50 at h-TGR5 and on human TGR5 (h-TGR5) was above 7.00 throughout.
As to `COc1cc(C(C)(C)c2cnc(SCc3c(F)cc(CCC[N+](C)(C)C)cc3Cl)n2-c2ccc(F)cc2)ccc1Cl` [Compound 19d, 3-(3-chloro-4-((5-(2-(4-chloro-3-methoxyphenyl)propan-2-yl)-1-(4-fluorophenyl)-1H-imidazol-2-ylthio)methyl)-5-fluorophenyl)-N,N,N-trimethylpropan-1-aminium 2,2,2-trifluoroacetate], the pEC50 at h-TGR5 and on human TGR5 (h-TGR5) was above 7.00 in each case.

Values taken from US8846739B2, “TGR5 agonists” (Exelixis Patent Company LLC, priority 2009, dated 2014).
